Results as given in patent publication US20200345694A1, “ANTIAGING COMPOSITION COMPRISING CYTOCHALASIN D OR SAG, AND METHOD FOR SCREENING ANTIAGING SUBSTANCE” (AMOREPACIFIC CORPORATION, priority 2017, published 2020).

How the values were obtained:
[1] = tested on: Normal human neonatal dermal fibroblasts; test: Expression of primary cilia in skin cells (immunofluorescence staining with ARL13B and acetylated tubulin antibodies, confocal microscope); format: cell-based; settings: 48 hours, vs control group (FIG. 1)
Procedure: Normal human neonatal dermal fibroblasts were plated in a Lab-Tex™ 2-well glass chamber slide (Thermo Scientific, Waltham, Mass., USA) with 0.5×10^5 cells per well. 24 hours later, the cells were treated with a test substance (1.5 mL of 0.2 μM cytochalasin D, or 1.5 mL of 2 μM SAG). 48 hours, the cells were immobilized and primary cilia were stained.
The primary cilia were stained with ARL13B (Proteintech) and a-acetylated tubulin (Sigma-Aldrich) antibodies. The cells were incubated overnight at 4° C. with ARL13B antibody diluted to 1/500 based on weight and a-acetylated tubulin antibody diluted to 1/1000 based on weight in a PBS buffer supplemented with 0.1% Triton™ X-100 and 5% normal goat serum. Then, the cells were treated at room temperature for 2 hours with Alexa Fluor 594 goat anti-mouse IgG and 488 goat anti-rabbit IgG (Invitrogen) as secondary antibodies. The nuclei were stained with DAPI and observed under a confocal microscope. The experiment was repeated at least twice for independent test groups.

[2] = tested on: normal human dermal fibroblasts; test: Procollagen I secreted to the medium of fibroblasts, measured by western blotting; format: cell-based; settings: 48 hours, vs control group (FIG. 2)
Procedure: It was investigated whether the increase in primary cilia leads to increased secretion of procollagen to the medium.
Specifically, normal human dermal fibroblasts were cultured in DMEM supplemented with 10% FBS (fetal bovine serum), 100 mg/L streptomycin and 100,000 U/L penicillin. The cultured fibroblasts seeded onto a 6-well plate with 1×10^5 cells per well and 1.5 mL of a medium containing 0.2 μM cytochalasin D or 2 pM SAG as a test substance was added 24 hours later. This leads to increased expression of primary cilia as in Test Example 1. 48 hours after the treatment with the test substance, the medium was collected and the amount of procollagen I in the medium was measured by western blotting. The procollagen I antibody was purchased from Developmental Studies Hybridoma Bank and diluted in a PBS buffer containing 0.1% Trito™ X-100 and 5% normal goat serum to 1/10000 based on weight. As a control group (loading control), electrophoresed polyacrylamide gel was stained with 0.05% Coomassie blue and then observed. The experiment was repeated at least twice for independent test groups.

SMILES	primary cilia of fibroblasts ([1]; 2 μM SAG)	amount of procollagen in fibroblasts (procollagen I in the medium) ([2]; 2 pM SAG (so in the source))	primary cilia of fibroblasts ([1]; 0.2 μM cytochalasin D)	amount of procollagen in fibroblasts (procollagen I in the medium) ([2]; 0.2 μM cytochalasin D)
CN[C@H]1CC[C@H](N(Cc2cccc(-c3ccncc3)c2)C(=O)c2sc3ccccc3c2Cl)CC1 [SAG, 3-chloro-N-[trans-4-(methylamino)cyclohexyl]-N-[[3-(4-pyridinyl)phenyl]methyl]benzo[b]thiophene-2-carboxamide]	increased	increased	–	–
C=C1C(O)[C@@H]2/C=C/C[C@H](C)C(=O)[C@](C)(O)/C=C/[C@H](OC(C)=O)[C@]23C(=O)N[C@@H](Cc2ccccc2)[C@@H]3[C@@H]1C (stereo partly shown) [cytochalasin D]	–	–	increased	increased
